According to a melting point compilation (Tetko et al.; mined from patent text by program, amines drawn as free bases though some values may be those of a salt):

Row | SMILES | melting point
1 | O=C(NCC(=O)N(c1ccccc1)c1ccccc1)Nc1cccc([N+](=O)[O-])c1 | 180 °C
2 | COP(=O)(CCc1cccc2c1O[C@H]1C[C@@H](O)[C@H](CO)[C@@H]21)OC | 106 to 107 °C
3 | CC(C)(C)c1cc(CS[C@@H]2CCCCCC[C@H]2SCc2cc(C(C)(C)C)cc(C(C)(C)C)c2O)c(O)c(C(C)(C)C)c1 (relative stereo) | 122 to 123 °C
4 | CCCCNC(=O)Oc1cccc(NC(=O)C=C(CCC)OC)c1 | 150 °C
5 | N[C@@H]1CCN(c2ccc3c(NC(=O)CC4CCCCC4)c(Cl)ccc3n2)C1 | 201 to 206 °C
6 | Cc1cc(F)ccc1-c1cc(OC2SCC(O)C(O)C2O)ccn1 (centres undefined) | 147 °C
7 | O=C(NCCc1ccccn1)Nc1ccccc1[N+](=O)[O-] | 182 °C
8 | Cc1cc(C2(C(F)(F)F)CC2(C#N)C#N)ccc1NC(=O)c1cccc(I)c1C(=O)NC(C)C (centres undefined) | 218 to 221 °C
9 | Cc1ccc2c(c1)CCO2 | 45 to 48 °C
10 | Cc1occ(S(=O)(=O)NC(C)(C)C)c1C | 95 to 96 °C
11 | NC(=O)CCn1c(=S)sc2ccccc21 | 226 to 227 °C
12 | Nc1c(F)c(N2CCC(c3cccnc3)C2)c(F)c2c1c(=O)c(C(=O)O)cn2C1CC1 (centres undefined) | 250 to 252 °C
13 | Clc1cc(Cl)nc(N2CCSCC2)n1 | 79.5 to 81.5 °C
14 | CCN(CC)CCNC(=O)c1cc(N)cc(C)c1OC | 56 to 57 °C
15 | CCCCCCCCCCCCCCC1(C(=O)OC)CO1 (centres undefined) | 47 to 48 °C
16 | CC(=O)OC1CCCC2=CC=C3C4CCC(C(C)CCCC(C)C)C4(C)CCC3C21C (centres undefined) | 105 to 106 °C
17 | CC(C)C(=O)NC1C=CC(CO)C1 (centres undefined) | 80 to 81 °C
18 | CC(Cn1cncn1)(O[Si](C)(C)C)c1ccc(F)cc1F (centres undefined) | 51 to 53 °C
19 | CC/C(=C(\c1ccc(/C=C/C(=O)O)cc1)c1ccc(OC(=O)c2ccno2)cc1)c1ccccc1 | 141 to 142 °C
20 | O=[N+]([O-])c1cc(C(F)(F)F)c(Cl)c([N+](=O)[O-])c1Nc1cc(C(F)(F)F)cc(C(F)(F)F)n1 | 169 to 170 °C
21 | O=C(NCCN1CCCC1)c1ccc(OCc2ccc(-c3ccccc3)cc2)cc1 | 173 to 175 °C

Row | SMILES | melting point
22 | Cc1nc2cc3c(cc2c(=O)[nH]1)C(N(C)c1ccc(C(=O)NC(CCc2nnn[nH]2)C(=O)O)c(F)c1)CC3 (mixture of isomers) | 203 to 205 °C
23 | C[C@@H]1[C@@H](N)CN1c1c(F)cc2c(=O)c(C(=O)O)cn3c2c1OC[C@H]3C | 217 to 219 °C
24 | Nc1nc(Cl)c(NC=O)c(N[C@@H]2CC=C(CO)C2)n1 | 148 to 150 °C
25 | CN1C(=S)N(c2ccc(C#N)c(C(F)(F)F)c2)C(=O)C1(C)C | 171 °C
26 | CCOC(=O)c1csc(NC(=O)c2ccccc2)n1 | 146 to 147 °C
27 | CCCCc1ccc(S(=O)(=O)Nc2nncs2)cc1 | 120 to 121 °C
28 | CC(C)(C)C(=O)c1c[nH]c2ncc(Cl)nc12 | 209 to 210 °C
29 | CCCc1c(C(=O)C(C)C)c2ccc(CC(N)=O)cc2n1Cc1ccccc1Cl | 146 to 148 °C
30 | O=C1OCCC12Sc1ccc([N+](=O)[O-])cc1C2=O (centres undefined) | 190 to 194 °C
31 | CC1(C)NC(=O)c2ccccc21 | 159 to 160 °C
32 | Cc1cc(O)c(SCc2ccccc2F)c(=O)o1 | 123 to 125 °C
33 | COc1cc(C(=O)O)c(OC)c2c1C(C)(C)CCC2(C)C | 187 °C
34 | c1ccc(-c2nc3cnccc3o2)cc1 | 118 to 121 °C
35 | CCCNC(=S)NS(=O)(=O)N1CCC(CCNC(=O)c2cc(Cl)ccc2OC)CC1 | 119 to 121 °C
36 | COC(=O)c1ccnc(N2CCN(CC3CC3)C2=O)c1 | 75 to 77 °C
37 | CC(O)c1cnc2cc(Oc3cc(-c4ccc(C(F)(F)F)cc4)ncn3)ccc2c1 (centres undefined) | 156 to 157 °C
38 | c1ccc(N(c2ccccc2)c2ccc(-c3ccc(-c4ccnc(Nc5ccc6ccccc6c5)n4)cc3)cc2)cc1 | > 300 °C
39 | CCCCCCCCCc1ccc(CCCC(N)(CO)CCO)cc1 (centres undefined) | 71 to 73 °C
40 | C#CCNCC1=Cc2cc(S(N)(=O)=O)sc2S(=O)(=O)N1C(C)C | 133 to 135 °C
41 | COc1ccccc1-c1cccn2nc(Nc3ccc4c(c3)CCN(CC(=O)N(C)C)CC4)nc12 | 102 to 105 °C
42 | CCn1c(=O)c2[nH]c(/C=C/c3ccc(OC)c(Br)c3)nc2n(CC)c1=O | > 280 °C

Row | SMILES | melting point
43 | CC(=O)Nc1ccc(C=C(C#N)C(=O)OCC[Si](C)(C)C)cc1 | 136 °C
44 | CC(=O)Nc1ccc(NCCSC#N)c([N+](=O)[O-])c1 | 168 °C
45 | COC(=O)c1ccc(C(=O)Nc2ccc(C)c(Nc3nc(-c4cccnc4)cs3)c2)cc1 | 195 °C
46 | CCCCCCCCC1COC(c2ccc(O)cc2)OC1 (centres undefined) | 96 to 97 °C
47 | COc1cc2cn(-c3nccs3)nc2cc1OC | 184 to 187 °C
48 | COc1ccc(S(=O)(=O)N2CCC[C@H]2C(=O)N2CCN(C(=O)c3ccc(C=NN)cc3)CC2)c(OC)c1COc1cccc2c(C)cc(C)nc12 | 136 °C
49 | O=C(C[C@@H](CCCC1CCCCC1)c1nc(CNC2CCCC2)co1)NO | 124 to 127 °C
50 | CCOC(=O)c1cn2c(nc1=O)CCCCC2 | 156 to 157 °C
51 | COC(=O)Cc1nc(-c2ccccc2)c(-c2ccccc2)s1 | 65 to 67 °C
52 | COc1cc2c(cc1O)CC(C)(C)N(Cc1cc(OC)c(OC)c(OC)c1)C2 | 143 to 147 °C
53 | CCC(C)(C(=O)N(C)C)n1cc(C)c(-c2ccccc2)n1 (centres undefined) | 102 to 104 °C
54 | Cc1nccn1CC1CCC(Nc2ccccc2I)=CC1=O (centres undefined) | 88 to 100 °C
55 | C=C(c1ccccc1)[C@@H](C)[C@H](NC(=O)C(F)(F)F)C(=O)O | 108 °C
56 | Cc1ccc(S(=O)(=O)C(C)(C)C(=O)C2CCCCC2)cc1 | 123 to 124 °C
57 | C=C1OC(c2ccc(Cl)cc2)=NC1(C)CC (centres undefined) | 55 to 57 °C
58 | Nc1ccc2ccc(SCc3ccccc3)nc2n1 | 167 °C
59 | CCOC1CC2(C)C(CCC3C4CC(O)C(Br)C4(C)CC(N(C)C)C32)CC1O (centres undefined) | 173 to 174 °C
60 | CCOCc1nc2c(N)nc3cc(N4CCCC4=O)ccc3c2n1CC(C)(C)O | 200 to 202 °C
61 | CCC(Cc1ccc(S(=O)(=O)c2ccc(S(N)(=O)=O)s2)cc1)N(C)C (centres undefined) | 169 to 172 °C
62 | Nc1nc2[nH]c(CCCc3cc(C(=O)O)cs3)cc2c(=O)[nH]1 | 181 to 182 °C
63 | c1cncc(C2CCCCC2)c1 | 78 to 80 °C

Other lines, results leading:

Row | melting point | SMILES
64 | 120 to 130 °C | COc1ccc(/C=C/C(=O)CC(=O)/C=C/c2ccc(O)cc2Cl)cc1O
65 | 201 to 203 °C | CC1(C)Oc2ccc(C#N)cc2[C@@H](NC(=O)Nc2ccc3c(c2)CN(C(=O)OCC(Cl)(Cl)Cl)C3)[C@@H]1O
66 | 256 to 257 °C | O=C1CC(=O)NC(c2cccc(Cl)c2)=N1
67 | 223 to 224 °C | N#CCCNC(=O)c1cccc(-c2cccc3nc(C(O)c4cccc(C(F)(F)F)c4)cn23)c1 (centres undefined)
68 | 251 °C | CCOC(=O)c1cn(-c2cnnn2C)c2nc(Cl)c(F)cc2c1=O
69 | 240 to 242 °C | CCN(C(=O)Cn1c(=O)n(C)c2nc(-c3ccccc3)ncc21)c1ccccc1
70 | 133 to 135 °C | COc1cc(C(C)=O)ccc1OCCN1CCC(c2noc3cc(Cl)ccc23)CC1
71 | 72 to 74 °C | C#CCN1C(=O)COc2cc(F)c(NC(=O)C3CCCN3C(=O)OCc3ccccc3)cc21 (centres undefined)
72 | 219 to 220 °C | Cc1cc(C(N)=O)ncc1C(c1c(F)ccc(F)c1F)S(=O)(=O)c1ccc(OC(F)(F)F)cc1 (centres undefined)
73 | 254 to 257 °C | O=C1NC(=O)c2c1c(-c1c(Cl)cccc1Cl)cc1c2c2cc(O)ccc2n1CCO
74 | 205 to 207 °C | CC1Oc2cc(Cl)ccc2/C1=N\NC(=O)Nc1ccc(C(F)(F)F)cc1 (centres undefined)
75 | 194 to 198 °C | CCOC(=O)C1=C(C)Nc2c(c(C)nn2C)C1c1ccccc1[N+](=O)[O-] (centres undefined)
76 | 154 to 156 °C | O=c1c(Cl)c(S(=O)(=O)Cc2ccccc2)cnn1-c1ccccc1
77 | 103 to 106 °C | CCCCn1c(CC)ccc1Cc1cccc(NC(N)=O)c1
78 | 218 to 222 °C | O=C(O)c1nc2n(n1)-c1cc(Cl)ccc1N(c1ccc(Cl)cc1Cl)C2
79 | 208 to 209 °C | COc1cn(-c2ccc(N3CCN(C)C3=O)cc2F)nc(-c2ccnn2-c2ccccc2)c1=O
80 | 133 to 134 °C | Cc1nc(N2C(=O)N(Cc3ccc(F)cc3)CC2O)sc1C(=O)NCc1ccccc1 (centres undefined)
81 | 152 to 154 °C | Cc1cccc(C2(CC(=O)O)CNC(=O)C2)c1 (centres undefined)

Row | melting point | SMILES
82 | 86 to 87 °C | FC(F)(F)c1ccc2c(c1)ncn2-c1cccc(I)c1
83 | 202 to 203 °C | O=c1[nH]c2cccc(Cl)c2s1
84 | 108 to 110 °C | Cc1c(C(=O)N[C@@H](Cc2ccc(OCc3ccoc3)cc2)C(=O)O)oc2cc(-c3ccc(Cl)cc3)ccc12
85 | 159 to 160 °C | CC(=O)OCC1OC(n2c(Br)c(C=O)c3cc(Cl)c(Cl)cc32)C(O)C1O (centres undefined)
86 | 199 to 201 °C | COc1cccc(OC)c1C(=O)Nc1oncc1-c1ccc(C(F)(F)F)cc1
87 | 140 °C | COc1cccc(-c2ncc(C(=O)N(C)Cc3cccc(O)c3)s2)c1F
88 | 187 to 188 °C | CCn1c2ccccc2c(=NN=C2NCCS2)c2ccccc21
89 | 157 to 162 °C | Nc1cccc(OCCCN2C(=O)c3ccccc3C2=O)c1
90 | > 260 °C | O=C(O)c1ccc(NC(=O)c2ccc(Cl)cc2)cc1
91 | 53.9 to 54.4 °C | CCC(C)c1ccc(-n2c(-c3cc(C)c(OCCO)c(C)c3)nc3cc(F)ccc3c2=O)cc1 (centres undefined)
92 | 113 to 115 °C | COC(=O)CCCC#Cc1cc(Cl)ccc1NS(=O)(=O)c1ccc2c(c1)C(C)(C)CCC2(C)C
93 | 97 to 99 °C | COc1ccc(CCNC2CCCc3c2ccc(=O)n3C)cc1 (centres undefined)
94 | 200 to 201 °C | O=C1N(Cc2ncccc2C(F)(F)F)c2ccccc2C12COc1cc3c(cc12)OC(F)(F)O3 (centres undefined)
95 | 87 to 88 °C | Fc1ccc(F)c(C(Sc2ccc(Cl)cc2)c2ccc(CSc3ccc(Cl)cc3)cn2)c1 (centres undefined)
96 | 264 to 265 °C | COc1cc(OC)c2c(=O)[nH]c(-c3ccc4[nH]c(CO)cc4c3)nc2c1
97 | 174 to 176 °C | O=c1c2ccccc2[nH]c(=S)n1CCCO
98 | 165 °C | COc1ccc(-c2cc(CO)c(=O)n(Cc3ccc(Cl)cc3)n2)cc1F
99 | 248 to 250 °C | COc1cccc2c(=O)c3cccc(OC)c3sc12
